Assay results published in US11026876B2, “Composition for improving skin condition comprising chemokines” (TEGO SCIENCE INC., priority 2016, dated 2021).

B1: thymus-expressed chemokine (protein, UniProt O15444 24-150, looked up)
C-C motif chemokine 25: QGVFEDCCLAYHYPIGWAVLRRAWTYRIQEVSGSCNLPAAIFYLPKRHRKVCGNPKSREVQRAMKLLDARNKVFAKLHHNTQTFQAGPHAVKKLSSGNSKLSSSKFSNPISSSKRNVSLLISANSGL

Legend:
Assay type in all cases: cell-based
[1] = system: keratinocytes; assay: Evaluation of chemotaxis of keratinocytes (Transwell insert migration); conditions: six hours, FIG. 1; for migration of keratinocytes compared to the negative control: 100 or 500 ng/ml chemokine in lower chamber, vs group not treated with a chemokine; for number of migrated keratinocytes relative to SDF-1α: 100 or 500 ng/ml chemokine, vs SDF-1α positive control
Procedure: The keratinocytes isolated from normal skin tissue were cocultured with 3T3 feeder cells in a DMEM/F12 medium (Invitrogen™, Thermo Fisher Scientific Inc., United States) containing 10% fetal bovine serum (FBS) in a humid environment of 37° C. and 10% CO2. When the cultured cells grew by 70 to 80%, the 3T3 feeder cells were removed and only the keratinocytes were isolated using trypsin-EDTA.
To evaluate chemotaxis of keratinocytes in response to BLC (CXCL13) or TECK (CCL25), cells were cultured using a Transwell® insert (Falcon®, Corning Incorporated, United States) with an opening size of 8 μm, and the number of cells migrated passing through micropores in the insert toward the chemokine were counted. Specifically, the lower chamber of the insert was treated with a chemokine (100 or 500 ng/ml BLC (CXCL13) or 100 or 500 ng/ml TECK (CCL25)), and then cells were placed in wells of the insert in a ratio of 1×10^4 cells per well. After cell incubation in a humid environment of 37° C. and 10% CO2 for six hours, the insert membrane was stained with hematoxylin, and then the number of migrated cells were counted.

[2] = system: wound on Neoderm®-ED three-dimensional skin culture model; assay: Wound-healing effect (re-epithelialization) in three-dimensional skin culture model; conditions: 500 ng/ml chemokine, five days, FIG. 2; for length of re-epithelialization compared to the negative control: 4-mm biopsy punch wound, vs untreated group; for length of re-epithelialization relative to SDF-1α: vs SDF-1α
Procedure: A Neoderm®-ED (TEGO Science, Korea) consisting of the dermis including collagen and fibroblasts and the epidermis including keratinocytes was prepared. A wound was induced on the Neoderm®-ED using a 4-mm biopsy punch, and the wound was treated with a 500 ng/ml chemokine (BLC (CXCL13) or TECK (CCL25)) and incubated in a humid environment of 37° C. and 10% CO2 for five days. The cultured Neoderm®-ED tissue was separated from insert wells and stained with hematoxylin and eosin (H&E staining). The stained tissue was placed on a glass slide and photographed under a microscope. The obtained images were analyzed using Image-Pro™ image analysis software (Media Cybernetics, Inc., United States) to measure a length of re-epithelialization of the wound.

[3] = system: proliferation marker Ki-67; assay: Expression of proliferation marker Ki-67 in three-dimensional skin culture model (immunofluorescence); conditions: 100 ng/ml chemokine, 48 hours, Neoderm®-ED, FIGS. 3 and 5; for expression of proliferation marker Ki-67 compared to SDF-1α: vs SDF-1α; for expression of proliferation marker Ki-67 compared to the negative control: vs untreated group
Procedure: (§1) To evaluate the effects of skin regeneration and skin elasticity improvement, a Neoderm®-ED was treated with a 100 ng/ml chemokine (BLC (CXCL13) or TECK (CCL25)) and incubated in a humid environment of 37° C. and 10% CO2 for 48 hours. Then, the Neoderm®-ED was reacted with primary antibodies that bind to markers (i.e., proliferation marker Ki-67 and collagen IV) used to confirm the ability to induce skin regeneration and skin elasticity and then with secondary antibodies labeled with a fluorescent substance. Cell nuclei were stained with 4′,6-diamidino-2-phenylindole (DAPI).

[4] = system: collagen IV; assay: Expression of collagen IV in three-dimensional skin culture model (immunofluorescence); conditions: 100 ng/ml chemokine, 48 hours, Neoderm®-ED, FIG. 4; for expression of collagen IV compared to SDF-1α: vs SDF-1α; for expression of collagen IV compared to the negative control: vs untreated group
Procedure: as §1

| Molecule | migration of keratinocytes compared to the negative control [1] | number of migrated keratinocytes relative to SDF-1α [1] | length of re-epithelialization compared to the negative control [2] | length of re-epithelialization relative to SDF-1α [2] | expression of proliferation marker Ki-67 compared to SDF-1α [3] | expression of proliferation marker Ki-67 compared to the negative control [3] | expression of collagen IV compared to SDF-1α [4] | expression of collagen IV compared to the negative control [4] |
| --- | --- | --- | --- | --- | --- | --- | --- | --- |
| B lymphocyte chemoattractant [BLC (CXCL13)] | increased | at least five times more | significantly greater length | at least a three times greater length | increased more significantly | increased | increased more significantly | increased |
| B1 | increased | at least five times more | significantly greater length | at least a three times greater length | increased more significantly | increased | increased more significantly | increased |
